According to patent US10620222B2, “Electrified compositions for determining the risk of developing adolescent idiopathic scoliosis through the use of GI protein receptor” (CHU Sainte-Justine, priority 2008, dated 2020):
Several values for one entry are separate records, joined by “and”; a condition that tells them apart may be missing. Identical values can stand only once.

System: receptors coupled to Gi proteins expressed on osteoblasts
Assay: Cellular Dielectric Spectroscopy (CDS, CELLKEY) response to Gi-coupled receptor ligands in osteoblasts from control and AIS subjects
Type: cell-based, human
Design: % of control / % of control signal, Group 1, min diff. / % of control signal, Group 2, min diff. / % of control signal, Group 3, min diff.: concentration or dose not given beside the values; dZiec value / Absolute dZiec, control value of max diff. (maximal control value): unit not given here
Conditions: for dZiec value / Absolute dZiec, control value of max diff. (maximal control value) / Absolute dZiec, control value of min diff. (minimal control value) / Absolute dZiec, Group 1, max diff. (group value) / Absolute dZiec, Group 1, min diff. (group value) / Absolute dZiec, Group 2, max diff. (group value) / Absolute dZiec, Group 2, min diff. (group value) / Absolute dZiec, Group 3, max diff. (group value) / Absolute dZiec, Group 3, min diff. (group value): 300 μM ligand; for dZiec value: n1, n2 of Exper. 1-3; for Absolute dZiec, control value of max diff. (maximal control value) / Absolute dZiec, control value of min diff. (minimal control value): osteoblasts of control subjects; for Absolute dZiec, control value of max diff. (maximal control value) / Absolute dZiec, control value of min diff. (minimal control value) / Absolute dZiec, Group 1, max diff. (group value) / Absolute dZiec, Group 1, min diff. (group value) / Absolute dZiec, Group 2, max diff. (group value) / Absolute dZiec, Group 2, min diff. (group value) / Absolute dZiec, Group 3, max diff. (group value) / Absolute dZiec, Group 3, min diff. (group value): from FIGS. 11A-11F; for Absolute dZiec, Group 1, max diff. (group value) / Absolute dZiec, Group 1, min diff. (group value) / % of control signal, Group 1, max diff. / % of control signal, Group 1, min diff. / Absolute dZiec, Group 2, max diff. (group value) / Absolute dZiec, Group 2, min diff. (group value) / % of control signal, Group 2, max diff. / % of control signal, Group 2, min diff. / Absolute dZiec, Group 3, max diff. (group value) / Absolute dZiec, Group 3, min diff. (group value) / % of control signal, Group 3, max diff. / % of control signal, Group 3, min diff.: osteoblasts; for Absolute dZiec, Group 1, max diff. (group value): AIS Group 1 value of max diff.; for Absolute dZiec, Group 1, min diff. (group value): AIS Group 1 value of min diff.; for % of control signal, Group 1, max diff.: AIS Group 1 vs maximal control value; for % of control signal, Group 1, min diff.: AIS Group 1 vs minimal control value; for Absolute dZiec, Group 2, max diff. (group value): AIS Group 2 value of max diff.; for Absolute dZiec, Group 2, min diff. (group value): AIS Group 2 value of min diff.; for % of control signal, Group 2, max diff.: AIS Group 2 vs maximal control value; for % of control signal, Group 2, min diff.: AIS Group 2 vs minimal control value; for Absolute dZiec, Group 3, max diff. (group value): AIS Group 3 value of max diff.; for Absolute dZiec, Group 3, min diff. (group value): AIS Group 3 value of min diff.; for % of control signal, Group 3, max diff.: AIS Group 3 vs maximal control value; for % of control signal, Group 3, min diff.: AIS Group 3 vs minimal control value
Text: Bone specimens were obtained intraoperatively from vertebras (varying from T3 to L4 according to the surgical procedure performed), while with trauma cases used as non-scoliotic controls bone specimens were obtained from other anatomical sites (tibia or femur, and in one case from an iliac crest biopsy). Osteoblasts and myoblasts isolated as previously described (Moreau A, Wang D S, Forget S et al. Melatonin Signaling Dysfunction in Adolescent Idiopathic Scoliosis. Spine 2004; 29:1772-81; Azeddine et al., 2007 Molecular determinants of melatonin signaling dysfunction in adolescent idiopathic scoliosis. Clin Orthop Relat Res. 2007, 462:45-52), were cultured at 37° C./5% CO2 in MEM supplemented with 10% fetal bovine serum (FBS) and 100 μg/mL streptomycin. Prior to the experiment, cells were seeded into the CELLKEY™ label-free cellular analysis system standard 96-well plates at a density of 5×10^4/well and grown for 24 h and incubated in standard conditions (37° C./5% CO2). In some plates, Pertussis toxin (100 ng/mL, Sigma, Oakville, ON, Canada) treatment was performed 16 h before the CDS assay. Following overnight incubation, plates were placed onto the CELLKEY™ label-free cellular analysis system and growth medium was exchanged to assay buffer (Hanks, Balanced Salt Solution containing 20 mM HEPES and 0.1% BSA) before starting the experiment. Cells were then allowed to equilibrate at room temperature for 30 min. Pre-addition measurements were made for 5 min to obtain a baseline reading. […] The quick update rate (2 s.) of the CELLKEY™ label-free cellular analysis system allows detection of these immediate changes in impedance. Impedance measurements were collected for 10 min to 15 min at 28° C. after ligand addition to monitor cellular responses to ligand interaction and to generate CELLKEY™ label-free cellular analysis system response profiles that are characteristic of the signaling mechanisms used.
The response induced by the various ligands to their receptors was measured by cellular dielectric spectroscopy (CDS) using the CELLKEY™ label-free cellular analysis technology. (MDS Sciex, San Francisco, Calif., USA). The CELLKEY™ label-free cellular analysis system integrates a proprietary impedance measurement system, custom 96-well microliter plate, onboard 96-well fluidics, and environment control and custom acquisition and analysis software in a full solution package (MDS Sciex) that is compatible with commercially available robotic platforms. Small voltage at 24 frequencies, from 1 KHz to 10 MHz, is applied to a monolayer of cells settled in a 96-well microplate containing electrodes at the bottom, and the resultant current is measured at an update rate of 2 s. […] Onboard fluid additions and exchanges are handled by 96-well head fluid delivery device with a range of 5-500 μL. In addition to the cell plate location, the CELLKEY™ label-free cellular analysis system includes two additional stations for 96- or 384-well compound plates. All aspects of assay set up, execution, and data acquisition and analysis are controlled by CELLKEY™ label-free cellular analysis software.
The minimal (min) and maximal (max) values represent the mean of three independent measurements performed in duplicate (six values in total) for a given patient/control subject. […] Duplicates (n1 and n2) of three independent experiments are presented.

[1] = osteoblasts of AIS#1020 (Group 3) relative to CTR#60
[2] = osteoblasts of AIS#1020 (Group 3)
[3] = osteoblasts of AIS#1198 (Group 3 in Table II) relative to CTR#69
[4] = osteoblasts of AIS#1198 (Group 3 in Table II)
[5] = osteoblasts of AIS#1468 (Group 3) relative to CTR#61
[6] = osteoblasts of AIS#1468 (Group 3)
[7] = osteoblasts of AIS#1474 (Group 1) relative to CTR#60
[8] = osteoblasts of AIS#1474 (Group 1)
[9] = osteoblasts of AIS#1488 (Group 1) relative to CTR#69
[10] = osteoblasts of AIS#1488 (Group 1)
[11] = osteoblasts of AIS#1513 (Group 3) relative to CTR#61
[12] = osteoblasts of AIS#1513 (Group 3)
[13] = osteoblasts of AIS#1550 (Group 2) relative to CTR#60
[14] = osteoblasts of AIS#1550 (Group 2)

Row | Structure (SMILES) | % of control [1] | dZiec value [2] | % of control [3] | dZiec value [4] | % of control [5] | dZiec value [6] | % of control [7] | dZiec value [8] | % of control [9] | dZiec value [10] | % of control [11] | dZiec value [12] | % of control [13] | dZiec value [14] | dZiec value (osteoblasts of control CTR#60) | dZiec value (osteoblasts of control CTR#61) | dZiec value (osteoblasts of control CTR#69) | Absolute dZiec, control value of max diff. (maximal control value) | Absolute dZiec, control value of min diff. (minimal control value) | Absolute dZiec, Group 1, max diff. (group value) | other results
1 | CNC(=O)[C@H]1O[C@@H](n2cnc3c(NCc4cccc(I)c4)ncnc32)[C@H](O)[C@@H]1O [IB-meca, 1-Deoxy-1-[6-[[(3-iodophenyl)methyl]amino]-9H-purin-9-yl]-N-methyl-β-D-ribofuranuronamide] | 50.1% and 47.6% and 50.6% and 47.2% and 47.5% and 50.0% | 74.19 and 76.19 and 87.32 and 85.32 and 76.76 and 84.76 | 41.1% and 45.4% and 47.8% and 50.0% and 45.1% and 47.6% | 63.58 and 75.58 and 85.63 and 93.63 and 75.61 and 83.61 | 77.6% and 79.5% and 78.4% and 78.2% and 79.4% | 98.77 and 110.77 and 121.90 and 129.90 and 111.34 and 119.34 | 21.1% and 18.9% and 21.2% and 20.8% and 18.5% and 22.4% | 31.25 and 30.25 and 36.61 and 37.61 and 29.93 and 37.93 | 25.5% and 24.8% and 26.8% and 24.5% and 23.6% and 27.1% | 39.34 and 41.34 and 47.91 and 45.91 and 39.63 and 47.63 | 61.6% and 64.9% and 67.0% and 68.6% and 64.8% and 66.7% | 78.36 and 90.36 and 104.12 and 112.12 and 92.24 and 100.24 | 44.2% and 42.1% and 47.0% and 43.8% and 42.9% and 45.6% | 65.47 and 67.47 and 81.23 and 79.23 and 69.35 and 77.35 | 148.22/— and 160.22/— and 172.73/— and 180.73/— and 161.48/— and 169.48/— | 127.27/— and 139.27/— and 155.44/— and 163.44/— and 142.36/— and 150.36/— | 154.52/— and 166.52/— and 179.10/— and 187.10/— and 167.81/— and 175.81/— | 172 | 132 | 20 | % of control (osteoblasts of AIS#1385 (Group 2) relative to CTR#69): 47.6% and 45.3% and 47.5% and 44.4% and 44.9% and 47.4%; dZiec value (osteoblasts of AIS#1385 (Group 2)): 73.49 and 75.49 and 85.15 and 83.15 and 75.32 and 83.32; Absolute dZiec, Group 1, min diff. (group value): 43; % of control signal, Group 1, max diff.: 12%; % of control signal, Group 1, min diff.: 33%; Absolute dZiec, Group 2, max diff. (group value): 73; Absolute dZiec, Group 2, min diff. (group value): 80; % of control signal, Group 2, max diff.: 42%; % of control signal, Group 2, min diff.: 61%; Absolute dZiec, Group 3, max diff. (group value): 98; Absolute dZiec, Group 3, min diff. (group value): 115; % of control signal, Group 3, max diff.: 55%; % of control signal, Group 3, min diff.: 87%
2 | Brc1c(NC2=NCCN2)ccc2nccnc12 [UK14304, 5-bromo-N-(4,5-dihydro-1H-imidazol-2-yl)-6-quinoxalinamine] | 42.4% and 37.2% and 34.7% and 40.5% and 37.5% and 41.7% | 42.74 and 39.74 and 43.5 and 51.5 and 41.62 and 49.62 | 42.6% and 43.7% and 57.1% and 54.0% and 49.1% and 58.9% | 44.16 and 46.16 and 56.22 and 54.22 and 46.19 and 54.19 | 72.7% and 71.7% and 76.2% and 68.8% and 73.0% | 65.72 and 67.72 and 77.77 and 75.77 and 67.75 and 75.75 | 20.4% and 19.3% and 18.6% and 19.1% and 17.5% and 16.4% | 20.6 and 23.35 and 24.35 and 19.48 | 25.3% and 24.2% and 26.3% and 18.8% and 28.2% and 28.5% | 26.24 and 25.55 and 25.92 and 18.92 and 26.55 | 64.7% and 64.0% and 70.1% and 63.2% and 65.8% and 67.8% | 58.45 and 60.45 and 71.58 and 69.58 and 61.02 and 69.02 | 53.2% and 42.7% and 45.3% and 35.2% and 41.6% and 45.5% | 53.62 and 45.62 and 56.75 and 44.75 and 46.19 and 54.19 | 100.78/— and 106.78/— and 125.27/— and 127.27/— and 111.02/— and 119.02/— | 90.39/— and 94.39/— and 102.1/— and 110.1/— and 92.75/— and 101.75/— | 103.67/— and 105.67/— and 98.38/— and 100.38/— and 94.02/— and 92.02/— | 115 | 98 | 21 | % of control (osteoblasts of AIS#1549 (Group 1) relative to CTR#61): 30.0% and 30.8% and 33.7% and 33.1% and 35.3% and 36.1%; dZiec value (osteoblasts of AIS#1549 (Group 1)): 27.08 and 29.08 and 34.45 and 36.45 and 32.76 and 36.76; Absolute dZiec, Group 1, min diff. (group value): 32; % of control signal, Group 1, max diff.: 18%; % of control signal, Group 1, min diff.: 33%; Absolute dZiec, Group 2, max diff. (group value): 45; Absolute dZiec, Group 2, min diff. (group value): 50; % of control signal, Group 2, max diff.: 39%; % of control signal, Group 2, min diff.: 51%; Absolute dZiec, Group 3, max diff. (group value): 60; Absolute dZiec, Group 3, min diff. (group value): 71; % of control signal, Group 3, max diff.: 52%; % of control signal, Group 3, min diff.: 72%
